Source: the supplement of paper PMC10307832

Assays:
Assay in all cases: relative viability (nuclei count vs DMSO), 5 days (fraction); higher = more cells survive
[1] = compound: CCOC(=O)CCNc1cc(N2CCc3ccccc3CC2)nc(-c2ccccn2)n1 [GSK-J4] + C[C@]1(O)C[C@@H](c2nc(-c3ccc4ccc(-c5ccccc5)nc4c3)c3c(N)nccn32)C1 [Linsitinib] (partner 1 µM)
Summary of the method: (§1)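 For relative viability, nuclei counts in treated wells were divided by those in vehicle wells. Lung cancer cell lines had been pin-tool dosed in 1536-well plates the day after seeding and cultured for 5 days, then fixed and stained in one step (final 0.05% Triton X-100, 1% formaldehyde, 1 ug/ml Hoechst) and imaged at 4×. Doses were one drug alone or a fixed anchor-drug dose plus five library-drug doses (not always all listed) in √10 steps, and values are duplicate-plate medians.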

[2] = compound: CN1CCC(CC1)OC2=CC(=C(C=C2)NC3=NC=C4C(=N3)N(C(=O)N4C)C5CCCC5)OC [AZ3146] + Nc1ncn([C@H]2C[C@H](O)[C@@H](CO)O2)c(=O)n1 [Decitabine] (partner 2 µM)
Summary of the method: as §1

[3] = compound: CN1CCC(CC1)OC2=CC(=C(C=C2)NC3=NC=C4C(=N3)N(C(=O)N4C)C5CCCC5)OC [AZ3146] + CC(=O)c1c(C)c2cnc(Nc3ccc(N4CCNCC4)cn3)nc2n(C2CCCC2)c1=O [Palbociclib] (partner 0.5 µM)
Summary of the method: as §1

[4] = compound: CCOC(=O)CCNc1cc(N2CCc3ccccc3CC2)nc(-c2ccccn2)n1 [GSK-J4] + C[C@@H](Oc1cc(-c2cnn(C3CCNCC3)c2)cnc1N)c1c(Cl)ccc(F)c1Cl [Crizotinib] (partner 1 µM)
Summary of the method: as §1

Cell Line | relative viability ([1]; first compound 0.5 µM) | relative viability ([1]; first compound 1.581 µM) | relative viability ([1]; first compound 5 µM) | relative viability ([1]; first compound 15.81 µM) | relative viability ([1]; first compound 50 µM) | relative viability ([2]; first compound 0.08 µM) | relative viability ([2]; first compound 0.253 µM) | relative viability ([2]; first compound 0.8 µM) | relative viability ([2]; first compound 2.53 µM) | relative viability ([2]; first compound 8 µM) | relative viability ([3]; first compound 0.08 µM) | relative viability ([3]; first compound 0.253 µM) | relative viability ([3]; first compound 0.8 µM) | relative viability ([3]; first compound 2.53 µM) | relative viability ([3]; first compound 8 µM) | relative viability ([4]; first compound 0.5 µM) | relative viability ([4]; first compound 1.581 µM) | relative viability ([4]; first compound 5 µM) | relative viability ([4]; first compound 15.81 µM) | relative viability ([4]; first compound 50 µM)
PC-14 | 0.909 | 0.918 | 0.86 | 0.915 | 1.05 | 0.208 | 0.2 | 0.249 | 0.15 | 0.0833 | 0.524 | 0.606 | 0.518 | 0.571 | 0.0919 | 0.858 | 0.896 | 0.843 | 0.842 | 0.855
RERF-LC-KJ | 0.93 | 0.818 | 0.852 | 0.856 | 0.777 | 0.69 | 0.704 | 0.731 | 0.73 | 0.381 | 1.05 | 1.17 | 1.01 | 1.21 | 0.833 | 0.709 | 0.837 | 0.721 | 0.872 | 0.768
SK-LU-1 | 1.08 | 1.18 | 0.716 | 0.911 | 0.777 | 0.558 | 0.684 | 0.552 | 0.647 | 0.692 | 0.375 | 0.365 | 0.355 | 0.404 | 0.386 | 0.756 | 0.762 | 0.725 | 0.607 | 0.584
SK-MES-1 | 0.994 | 0.975 | 0.827 | 0.993 | 0.994 | 0.364 | 0.397 | 0.359 | 0.477 | 0.344 | 0.331 | 0.344 | 0.346 | 0.291 | 0.305 | 0.987 | 0.977 | 0.724 | 0.939 | 0.942
SW 1573 | 0.81 | 0.755 | 0.802 | 0.703 | 0.595 | 0.509 | 0.605 | 0.542 | 0.397 | 0.162 | 0.359 | 0.368 | 0.421 | 0.401 | 0.358 | 0.701 | 0.726 | 0.832 | 0.754 | 0.608
